Data from US10509041B2, “Glucose derivative, and cell imaging method and imaging agent using said derivative” (HIROSAKI UNIVERSITY, priority 2014, dated 2019).

Experiments:
[1] = tested on: mouse insulinoma cells (MIN6); assay: Increase in fluorescence intensity (uptake) after administration of fluorescent glucose derivative to MIN6 cells, influence of cytochalasin B (CB) or phloretin (PHT), fluorescence microplate reader; assay type: cell-based; conditions: QDG final concentration 100 NM as printed, Ex 354 nm, Em 435 nm
[2] = Fluorescence spectrum (excitation and fluorescence maxima); assay type: physicochemical
Description: The fluorescence spectra of CDG synthesized in (1) and QDG synthesized in (2) were compared with the fluorescence spectrum of 2-NBDLG (manufactured by Peptide Institute, Inc.).
The numeric values described above the graph denote the fluorescence maximum of CDG and QDG, respectively. It is evident that the fluorescence maximum was largely shifted to shorter wavelength as compared with the fluorescence maximum of 2-NBDLG present around 550 nm.

[3] = tested on: MIN6 cell masses (spheroids); assay: Fluorescent imaging of tumor cell masses (spheroids) of MIN6 cells with mixed fluorescent glucose derivative solutions; assay type: cell-based, mouse; conditions: 100 μM CDG+100 μM 2-NBDLG+20 μM 2-TRLG mixed solution, 3 minutes, 6 minutes after start of washout, culture day 17
Protocol: A fluorescent mixed solution containing 100 μM CDG, 100 μM 2-NBDLG, and 20 μM 2-TRLG (CDG/2-NBDLG/2-TRLG) was administered at 37° C. for 3 minutes to MIN6 cell masses (spheroids) at culture day 17, and fluorescent imaging was conducted.
10 μL of a culture solution containing MIN6 cells suspended at a density of 6×10^4 cells/mL was added dropwise onto each glass cover slip, and then, the glass cover slip was left standing for 40 minutes in an incubator for fixation to the glass surface. The cells were cultured by the addition of 3 mL of a culture solution (600 cells/slip). Spheroids were formed by continuing the culture for 15 to 17 days. Half the amount of the culture solution was replaced with a fresh one once every three days.
The MIN6 cells used were cells kindly provided by professor Junichi Miyazaki (Osaka University) and subcultured 6 to 10 times. Half the amount of the culture solution was replaced with a fresh one once every two days.
13.4 g of high glucose-containing Dulbecco's modified Eagle's Medium (DMEM-HG) (Sigma-Aldrich, #D5648), 3.4 g of NaHCO3, and 5 μL of 2-mercaptoethanol were dissolved in 1 L of ultrapure water, and the pH of the solution was adjusted to 7.30 to 7.35 in a CO2 incubator of 37° C. The culture solution was supplemented with fetal bovine serum (Hyclone, Cat# SH30070.03) at a final concentration of 10% and penicillin-streptomycin at a final concentration of 0.5%.
The whole amount of the 0.5 mg CDG vial was recovered using 0.73 mL in total of 10% DMSO and dissolved by addition to 7.0 ml of a KRB solution for image acquisition according to the method described in Non Patent Literature 2.
The whole amount of one 0.5 mg 2-NBDLG vial was dissolved in 7.3 mL of a KRB solution for image acquisition.
The CDG solution and the 2-NBDLG solution were mixed at a ratio of 1:1. The whole amount of the 0.2 mg 2-TRLG vial was recovered using 130 μL in total of DMSO and mixed with 13 ml of the CDG+2-NBDLG mixed solution according to the method described in Non Patent Literature 2 (final concentration: 100 μM CDG+100 μM 2-NBDLG+20 μM 2-TRLG mixed solution). […]
The glass cover slip with the cultured MIN6 cells was transferred into the KRB solution for image acquisition in a perfusion chamber loaded on a stage of a fluorescence microscope, followed by measurement. […]
The KRB solution for image acquisition was warmed in advance in an aluminum syringe heater and supplied to the perfusion chamber through hydrostatic pressure. […] Immediately before being introduced to the perfusion chamber, the solution was rewarmed via an inline heater so that the actually measured temperature of the perfusate in an observation region in the chamber was adjusted to 36±1° C. […]

[4] = tested on: neuronal cells of the substantia nigra pars reticulate of the midbrain; assay: Fluorescent imaging of acutely isolated normal neuronal cells; assay type: cell-based, mouse; conditions: 3 minutes, 8 minutes after start of washout
Protocol: The whole amount of the 0.5 mg CLG vial was recovered using 0.73 mL in total of 10% DMSO and dissolved (100 μM) by addition to 14.79 ml of a HEPES solution for image acquisition according to the method described in Non Patent Literature 2. […]
150 mM NaCl, 5 mM KCl, 1 mM MgCl2, 2 mM CaCl2, and 10 mM HEPES (the pH of the solution was adjusted to 7.4 with a 1 M tris(2-amino-2-hydroxymethyl-1,3-propanediol) solution). The concentration of glucose was set to 10 mM. 0.1 mM carbenoxolone (Sigma-Aldrich, #C4790) was added thereto for the purpose of inhibiting the entrance and exit of fluorescently labeled glucose by way of gap junction/hemichannel. This HEPES solution for image acquisition was used for preparing the CLG solution and the mixed solution with the additional fluorescent sugar derivative.
Neuronal cells […] to the method described in the previous reports of the inventors (WO2010/16587 (Patent Literature 2)) and (WO2012/133688 (Patent Literature 4)) and attached to each glass cover slip coated with poly-L-lysine. Then, the glass cover slip was transferred into the HEPES solution for image acquisition in a perfusion chamber loaded on a stage of a fluorescence microscope, followed by observation.
A silicon plate of 1 mm thickness bored to have a streamline-shaped hole (10 mm wide x 35 mm long) was placed via cover glass onto an aluminum heating control platform (Warner Instruments) having a round hole (diameter: 18 mm) for an objective lens at the bottom, and allowed to be in close contact with the cover glass.
The HEPES solution for image acquisition was warmed in advance in an aluminum syringe heater and supplied to the perfusion chamber through hydrostatic pressure. The perfusion rate was adjusted to 1.3±0.2 mL/min using a flow rate adjuster. Immediately before being introduced to the perfusion chamber, the solution was rewarmed via an inline heater so that the actually measured temperature of the perfusate in an observation region in the chamber was adjusted to 32.5±1° C. The CLG/2-TRLG mixed solution was able to be supplied in the same way as above and was switched with the HEPES solution for image acquisition using an electromagnetic valve capable of controlling the opening and closing of the channel. The solution was removed using a vacuum pump capable of controlling suction pressure.
The fluorescence microscope used was NIKON ECLIPS-Ti, and images were acquired with a CCD camera Retiga 2000R.
CLG and 2-TRLG were each detected using the following filter cassette.
Excitation 360/40 nm, Dichroic mirror 400 nm, Emission 460/50 nm.
Excitation 567/15 nm, Dichroic mirror 593 nm, Emission 593 nm Long pass.
The objective lens used in this method was ×20 dry lens (Nikon Plan S Fluor). The images were acquired at 1600×1200 pixels. […]

Compound	maximum excitation wavelength (Ex max) [2] [nm]	maximum fluorescence wavelength (Em max) [2]	also measured
O=c1ccc2ccc(NC3C(O)OC(CO)[C@@H](O)[C@@H]3O)cc2[nH]1 (stereo partly drawn) [QDG, 2-deoxy-2-(2-oxo-1,2-dihydroquinolin-7-yl)amino-D-glucose]	353.5	423.0 nm	effect of CB on increase in fluorescence intensity caused by administration ([1]; CB as in Example 11): significantly inhibited; effect of PHT on increase in fluorescence intensity caused by administration ([1]; PHT as in Example 12): more strongly inhibited
2-Texas Red-2-amino-2-deoxy-L-glucose [Compound 2-TRLG, reference compound]	–	–	uptake in the central portion of the spheroid [3]: strong uptake; uptake into normal neuronal cells ([4]; 100 μM CDG+20 μM 2-TRLG mixed solution, 14-day-old mouse): not taken into the normal neuronal cells; uptake into normal neuronal cells ([4]; 100 μM CLG+20 μM 2-TRLG mixed solution, 21-day-old mouse): not taken into the normal neuronal cells
O=c1oc2cc(NC3C(O)OC(CO)[C@@H](O)[C@@H]3O)ccc2cc1C(F)(F)F (stereo partly drawn) [Compound 3-TFMCDG, 2-deoxy-2-(2-oxo-3-trifluoromethyl-2H-chromen-7-yl)amino-D-glucose]	381.0	455.0 nm	–
Cc1cc(=O)oc2cc(NC3C(O)OC(CO)[C@@H](O)[C@@H]3O)ccc12 (stereo partly drawn) [Compound 4-MCDG, 2-deoxy-2-(2-oxo-4-methyl-2H-chromen-7-yl)amino-D-glucose]	362.0	446.0 nm	–
Cc1cc2ccc(NC3C(O)OC(CO)[C@@H](O)[C@@H]3O)cc2oc1=O (stereo partly drawn) [Compound 3-MCDG, 2-deoxy-2-(2-oxo-3-methyl-2H-chromen-7-yl)amino-D-glucose]	361.0	460.0 nm	–
O=c1ccc2ccc(NC3C(O)OC(CO)[C@H](O)[C@H]3O)cc2[nH]1 (stereo partly drawn) [QLG, 2-deoxy-2-(2-oxo-1,2-dihydroquinolin-7-yl)amino-L-glucose]	353.5	423.0 nm	–
O=c1cc(C(F)(F)F)c2ccc(NC3C(O)OC(CO)[C@@H](O)C3O)cc2o1 (stereo partly drawn) [Compound 4-TFMCDG, 2-deoxy-2-(2-oxo-2H-4-trifluoromethyl-chromen-7-yl)amino-D-glucose]	380.0	500.0 nm	–
O=[N+]([O-])c1ccc(NC2C(O)OC(CO)[C@H](O)C2O)c2nonc12 (stereo partly drawn) [Compound 2-NBDLG, 2-[N-(7-nitrobenz-2-oxa-1,3-diazol-4-yl)amino]-2-deoxy-L-glucose, reference compound]	–	around 550 nm	uptake into cells of MIN6 spheroids, intracellular localization [3]: strongly taken into the cytoplasm
